In the Kinase Knowledgebase extract (Sharma et al. 2016):

These compounds were tested against MAPK14 (UniProt Q16539) (assay: CSBP Binding Inhibition).
MAPK14, sequence (Q16539 whole entry, looked up): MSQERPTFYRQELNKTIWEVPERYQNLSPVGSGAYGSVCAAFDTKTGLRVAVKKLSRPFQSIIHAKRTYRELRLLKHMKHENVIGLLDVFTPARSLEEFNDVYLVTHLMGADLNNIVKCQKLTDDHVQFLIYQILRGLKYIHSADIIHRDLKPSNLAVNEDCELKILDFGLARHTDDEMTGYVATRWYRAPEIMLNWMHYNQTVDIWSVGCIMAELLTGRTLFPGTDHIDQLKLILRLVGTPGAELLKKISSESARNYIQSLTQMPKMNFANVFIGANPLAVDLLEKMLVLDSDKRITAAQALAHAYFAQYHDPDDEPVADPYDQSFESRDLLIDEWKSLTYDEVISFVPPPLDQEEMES

IC50, < 50 µM:
COc1nccc(-c2c(-c3ccc(F)cc3)ncn2[C@H]2CC[C@@](C)(O)CC2)n1.COc1nccc(-c2c(-c3ccc(F)cc3)ncn2[C@H]2CC[C@](C)(O)CC2)n1
CC(C)Oc1nccc(-c2c(-c3ccc(F)cc3)ncn2C2CCC(=O)CC2)n1
CC(C)Oc1nccc(-c2c(-c3ccc(F)cc3)ncn2C2CCC(O)CC2)n1 (stereo not given)
CSc1nccc(-c2c(-c3ccc(F)cc3)ncn2C2CCC(=O)CC2)n1
O=C1CCC(n2cnc(-c3ccc(F)cc3)c2-c2ccnc(O)n2)CC1
CSc1nccc(-c2c(-c3ccc(F)cc3)ncn2[C@H]2CC[C@H](O)CC2)n1
COc1nccc(-c2c(-c3ccc(F)cc3)ncn2C2CCC(=O)CC2)n1

Each compound was assayed against MAPK14 (UniProt Q16539) (assay: CSBP Kinase Inhibition).

IC50, < 50 µM:
COc1nccc(-c2c(-c3ccc(F)cc3)ncn2[C@H]2CC[C@](C)(O)CC2)n1
COc1nccc(-c2c(-c3ccc(F)cc3)ncn2[C@H]2CC[C@H](N)CC2)n1
COc1nccc(-c2c(-c3ccc(F)cc3)ncn2[C@H]2CC[C@@](C)(O)CC2)n1
COc1nccc(-c2c(-c3ccc(F)cc3)ncn2[C@H]2CC[C@H](OC3CCCCO3)CC2)n1 (stereo not given in full)
COc1nccc(-c2c(-c3ccc(F)cc3)ncn2[C@H]2CC[C@@H](N)CC2)n1
Oc1nccc(-c2c(-c3ccc(F)cc3)ncn2C2CCC(O)CC2)n1 (stereo not given)
CCCC(=O)O[C@H]1CC[C@H](n2cnc(-c3ccc(F)cc3)c2-c2ccnc(OC)n2)CC1
COc1nccc(-c2c(-c3ccc(F)cc3)ncn2[C@H]2CC[C@@](O)(CO)CC2)n1.COc1nccc(-c2c(-c3ccc(F)cc3)ncn2[C@H]2CC[C@](O)(CO)CC2)n1
